From patent US20100210597A1, “C21-Deoxy Ansamycin Derivatives as Antitumor Agents” (priority 2007, published 2010)
“And” between values parts separate entries of the source, which are not always exact repeats. Identical values can stand only once. Like-named read-outs stand apart in the source and are kept apart here.

Assays:
[1] = In vitro Caco-2 assay for cell permeability; type: in vitro ADME; conditions: human, Caco-2, pH 7.4, 10 uM, 2 hour incubation
Experimental: (§1) Caco-2 cells (ATCC Cat. # HTB-37) were grown on fibrillar collagen-coated, microporous, polycarbonate membranes in 24-well BioCaot™ insert plates. Following 5-day growth in Eagle's minimum essential medium supplemented with 10% FBS, the cells were exposed to BioCoat Enterocyte Differentiation Medium (BD, Cat. # 05496) for 2 days to induce enterocytic differentiation. Prior to dosing, the transepithelial electric resistance (TEER) of the Caco-2 cells in each well was measured to ensure the quality of the monolayers.
(§2) The stock solutions of test compounds were prepared at 3 mM in DMSO. Dosing solutions were prepared in the permeability assay buffer at 10 μm. The permeability assay buffer was Hank's balanced salt solution containing 10 mM HEPES at a pH of 7.4±0.2.
(§3) The Caco-2 cells were dosed with the test compounds on either apical side (for A-to-B permeation) or basolateral side (for B-to-A permeation) and incubated at 37° C. with 5% CO2 and 90% relative humidity. The testing for each compound was performed in duplicate. After 2 hour incubation, a 20-μL sample was taken from each of dosing solutions and both donor and receiver compartments. To ensure the validity of the Caco-2 assay, propranolol and vinblastine were used as a high- and a low- to medium-permeability positive control, respectively. Vinblastine also served as a P-gp substrate, tested in conjunction with a P-gp inhibitor, verapamil.
(§4) To quantify test compounds by LC/MS/MS, a related geldanamycin-like compound, 17-methoxyethylamino geldanamycin (Schnur et al., 1995), was used as the internal standard. The calculation of permeability of each compound involved only the concentration ratio of the same test compound, the concentration ratio was expressed in the peak area ratio of the test compound to the internal standard. The peak area ratio of each compound was derived by LC-MS/MS.
(§5) The apparent permeability coefficient Papp was calculated as below: […]
(§6) dCr: cumulative concentration in the receiver compartment in M. dt: duration of the assay (i.e., 7200 seconds). Vr: volume of the receiver compartment in cm^3. A: area of the cell monolayer (0.31 cm^2 for 24-well BioCoat™ plate). C0: concentration of the dosing solution in M.
(§7) The in vitro permeability of 20 and the parent 17 were assayed using caco-2 cells, as described in the general methods. All compounds were analysed at a concentration of 10 uM.

[2] = test system: Caco-2 cells; assay: In vitro Caco-2 assay for cell permeability; type: in vitro ADME; conditions: 10 uM, 2 hour incubation
Experimental: as §1, §2, §3, §4, §5, §6, §7

[3] = Whole blood cleavage assay, mouse blood; type: in vitro ADME; conditions: 10 uM, 37° C., two hours
Experimental: (§8) Human whole blood (single donor, batch HBE4534) was obtained from First Link UK Ltd. Mouse whole blood (pool of 10, batch 07-2470) was obtained from Harlan UK. Blood was collected into tubes containing EDTA as anticoagulant and shipped on ice. Blood was used on the day of arrival. In the case of human whole blood incubations were undertaken both on the fresh blood and also after freezing the blood followed by thawing. Control compounds were Lidocaine, Bisacodyl and Simvastatin.
(§9) All test compounds were incubated at 10 uM in whole blood at 37° C. At selected time points, 0.1 ml of blood was mixed with 0.3 ml of acetonitrile and vortexed immediately. All samples were centrifuged and supernatant were diluted with same volume of deionized water. […] For 20 sample analysis, mass spectrometry monitored both 17 and 20. […]
(§10) The Half life, for the disappearance of 20, was determined according to the relationship: […]
(§11) Blood cleavage assays were run to confirm that 20 acts as a prodrug and cleaves to produce compound 17 when incubated with human and mouse blood, as described in the general methods. The compound was incubated in human or mouse blood with samples removed over two hours, and analysed by LC MS/MS for presence of 20 and 17 (see FIG. 6). […] Due to the differing responses of 17 and 20 on mass spectrometry it was not possible to quantify the extent of conversion of 20 to 17.

[4] = Aqueous solubility by direct dissolution; type: physicochemical; conditions: water, deionised water; limit not tested
Source text: It is not possible to measure the solubility of 20 and 23 by this method due to their intrinsic high aqueous solubility.

[5] = test system: MCF-7; assay: Monolayer proliferation assay (modified propidium iodide), MCF-7; type: cell-based, human; conditions: average of 2 experiments
Experimental: In vitro evaluation of compounds for anticancer activity in a panel of human tumour cell lines in a monolayer proliferation assay was carried out at the Oncotest Testing Facility, Institute for Experimental Oncology, Oncotest GmbH, Freiburg.
The Oncotest cell lines are established from human tumor xenografts as described by Roth et al., (1999). The origin of the donor xenografts is described by Fiebig et al., (1999). Other cell lines are either obtained from the NCl (DU145, MCF-7) or purchased from DSMZ, Braunschweig, Germany.
All cell lines, unless otherwise specified, are grown at 37° C. in a humidified atmosphere (95% air, 5% CO2) in a ‘ready-mix’ medium containing RPMI 1640 medium, 10% fetal calf serum, and 0.1 mg/mL gentamicin (PAA, Cölbe, Germany).
A modified propidium iodide assay was used to assess the effects of the test compound(s) on the growth of six human tumour cell lines (Dengler et al., (1995)).
Briefly, cells are harvested from exponential phase cultures by trypsinization, counted and plated in 96 well flat-bottomed microtitre plates at a cell density dependent on the cell line (5-10.000 viable cells/well). After 24 h recovery to allow the cells to resume exponential growth, 0.010 mL of culture medium (6 control wells per plate) or culture medium containing macbecin were added to the wells. Each concentration is plated in triplicate. Compounds were applied in two concentrations (0.001 mM and 0.01 mM). Following 4 days of continuous exposure, cell culture medium with or without test compound was replaced by 0.2 mL of an aqueous propidium iodide (P1) solution (7 mg/L). To measure the proportion of living cells, cells were permeabilized by freezing the plates. After thawing the plates, fluorescence was measured using the Cytofluor 4000 microplate reader (excitation 530 nm, emission 620 nm), giving a direct relationship to the total number of viable cells.
Growth inhibition is expressed as treated/control×100 (% T/C).
In vitro evaluation of the test compound, 20, for anticancer activity in a panel of human tumour cell lines in a monolayer proliferation assay was carried out as described in the general methods using a modified propidium iodide assay.

[6] = Whole blood cleavage assay, human blood; type: in vitro ADME; conditions: 10 uM, 37° C., two hours
Experimental: as §8, §9, §10, §11

For `CO[C@H]1C[C@H](C)Cc2cc(cc(OP(=O)(O)O)c2)NC(=O)/C(C)=C/CC[C@H](C)[C@@H](OC(N)=O)/C(C)=C/[C@H](C)[C@H]1O` [Compound 20, 4,5-dihydro-11-O-demethyl-15-demethoxy-18,21-didehydro-21-deoxomacbecin-18-phosphate], the efflux ratio at 2 h, 10 uM ([1]; read-out: Efflux ratio Papp(B → A)/Papp(A → B)) was 0.7, the Papp A→B at 2 h, 10 uM ([1]; read-out: Permeability Apical to Basolateral Papp(A → B) Mean) was 0.49 ×10⁻⁶ cm/s and the Papp A→B at 2 h, 10 uM ([1]; read-out: Permeability Apical to Basolateral Papp(A → B) Rep. 1) was 0.67 ×10⁻⁶ cm/s. The Papp A→B at 2 h, 10 uM ([1]; read-out: Permeability Apical to Basolateral Papp(A → B) Rep. 2) was 0.31 ×10⁻⁶ cm/s, the Papp B→A at 2 h, 10 uM ([1]; read-out: Permeability Basolateral to Apical Papp(B → A) Mean) was 0.35 ×10⁻⁶ cm/s and the Papp B→A at 2 h, 10 uM ([1]; read-out: Permeability Basolateral to Apical Papp(B → A) Rep. 1) was 0.22 ×10⁻⁶ cm/s. The Papp B→A at 2 h, 10 uM ([1]; read-out: Permeability Basolateral to Apical Papp(B → A) Rep. 2) was 0.48 ×10⁻⁶ cm/s, the “Efflux Limited” value [2] was “No” and the conversion in blood [3] was “act as a prodrug and release 17”. For the same compound, the solubility [4] was ≥ 10000 µg/mL and ≥ 17000 µM, the “Test/Control (%) at drug concentration (μg/mL)” value (shortened to “Test/Control (%)”) ([5]; MCF-7, 0.01 μg/mL) was 98% and the “Test/Control (%)” value ([5]; MCF-7, 0.1 μg/mL) was 38%. The “Test/Control (%)” value ([5]; MCF-7, 1 μg/mL) was 14%, the “Test/Control (%)” value ([5]; MCF-7, 10 μg/mL) was 13% and the “Test/Control (%)” value ([5]; MCF-7, 100 μg/mL) was 9%. For the same compound, the conversion in blood [6] was “act as a prodrug and release 17”.
